Laboratory results from ChEMBL document CHEMBL6096703 (J Med Chem, 2025).

Assays:
MDA-MB-436 [1] = assay: Antiproliferative activity against human MDA-MB-436 cells assessed as reduction in cell viability incubated for 7 days by CCK-8 assay; type: functional, cell-based; conditions: MDA-MB-436, 168 h
[2] = biological target: T1, Poly [ADP-ribose] polymerase 1 (Homo sapiens, UniProt P09874); assay: Inhibition of PARP1 (unknown origin) at 1 nM preincubated with compound for 10 mins followed by DNA and NAD+ addition and measured after 60 mins by chemiluminescence based envision reader analysis relative to control; conditions: time 70.0 min
T1 sequence (P09874 whole entry): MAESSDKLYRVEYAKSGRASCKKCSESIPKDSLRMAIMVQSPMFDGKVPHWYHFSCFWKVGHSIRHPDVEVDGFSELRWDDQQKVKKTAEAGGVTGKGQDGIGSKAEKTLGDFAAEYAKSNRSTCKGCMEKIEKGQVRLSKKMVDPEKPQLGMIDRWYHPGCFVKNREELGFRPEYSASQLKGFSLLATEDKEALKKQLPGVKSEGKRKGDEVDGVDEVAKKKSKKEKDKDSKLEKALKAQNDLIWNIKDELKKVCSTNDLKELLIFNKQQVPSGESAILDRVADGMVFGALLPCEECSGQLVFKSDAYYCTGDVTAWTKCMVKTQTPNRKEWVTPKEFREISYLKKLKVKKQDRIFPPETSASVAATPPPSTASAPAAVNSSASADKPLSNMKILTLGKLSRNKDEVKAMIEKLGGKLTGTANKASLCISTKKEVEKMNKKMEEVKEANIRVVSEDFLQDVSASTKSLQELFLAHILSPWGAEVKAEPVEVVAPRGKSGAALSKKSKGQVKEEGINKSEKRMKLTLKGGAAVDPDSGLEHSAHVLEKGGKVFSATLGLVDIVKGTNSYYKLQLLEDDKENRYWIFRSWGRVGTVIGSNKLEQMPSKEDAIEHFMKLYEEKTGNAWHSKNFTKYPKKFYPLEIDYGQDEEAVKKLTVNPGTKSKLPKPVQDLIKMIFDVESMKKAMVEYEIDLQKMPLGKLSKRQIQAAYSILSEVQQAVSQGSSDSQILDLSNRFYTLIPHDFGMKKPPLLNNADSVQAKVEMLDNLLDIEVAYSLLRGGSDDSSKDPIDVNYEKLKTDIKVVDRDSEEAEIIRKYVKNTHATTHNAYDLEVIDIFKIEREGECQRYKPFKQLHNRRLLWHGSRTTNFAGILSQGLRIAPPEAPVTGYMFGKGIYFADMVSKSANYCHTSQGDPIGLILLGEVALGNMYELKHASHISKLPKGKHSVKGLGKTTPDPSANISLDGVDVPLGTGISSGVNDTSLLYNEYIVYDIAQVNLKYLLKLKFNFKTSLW

[3] = biological target: T2, Poly [ADP-ribose] polymerase 2 (Homo sapiens, UniProt Q9UGN5); assay: Inhibition of PARP2 (unknown origin) at 1 uM preincubated with compound for 10 mins followed by DNA and NAD+ addition and measured after 60 mins by chemiluminescence based envision reader analysis relative to control; conditions: time 70.0 min
T2 sequence (Q9UGN5 whole entry): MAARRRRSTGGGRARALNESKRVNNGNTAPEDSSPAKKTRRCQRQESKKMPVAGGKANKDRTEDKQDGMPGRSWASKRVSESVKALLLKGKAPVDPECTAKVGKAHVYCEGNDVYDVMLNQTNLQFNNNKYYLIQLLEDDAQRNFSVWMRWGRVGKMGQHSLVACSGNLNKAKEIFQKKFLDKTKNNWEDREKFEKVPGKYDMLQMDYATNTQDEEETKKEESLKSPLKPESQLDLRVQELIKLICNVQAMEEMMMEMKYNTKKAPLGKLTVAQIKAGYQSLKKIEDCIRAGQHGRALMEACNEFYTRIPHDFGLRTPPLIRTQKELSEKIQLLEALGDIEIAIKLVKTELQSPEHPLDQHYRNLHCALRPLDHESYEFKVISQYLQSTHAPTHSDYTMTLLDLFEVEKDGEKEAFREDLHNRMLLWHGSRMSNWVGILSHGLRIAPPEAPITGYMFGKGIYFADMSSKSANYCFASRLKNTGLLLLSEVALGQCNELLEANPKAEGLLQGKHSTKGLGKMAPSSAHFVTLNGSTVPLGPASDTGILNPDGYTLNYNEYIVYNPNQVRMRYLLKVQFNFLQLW

MDA-MB-436 [4] = assay: Antiproliferative activity against human MDA-MB-436 cells assessed as inhibition of cell proliferation at 100 nM incubated for 7 days by CCK-8 assay relative to control; type: functional; conditions: MDA-MB-436, 168 h, time 7 day
[5] = biological target: T1, Poly [ADP-ribose] polymerase 1; assay: Inhibition of PARP1 (unknown origin) preincubated with compound for 10 mins followed by DNA and NAD+ addition and measured after 60 mins by chemiluminescence based envision reader analysis
[6] = biological target: T2, Poly [ADP-ribose] polymerase 2; assay: Inhibition of PARP2 (unknown origin) preincubated with compound for 10 mins followed by DNA and NAD+ addition and measured after 60 mins by chemiluminescence based envision reader analysis
[7] = Cmax in male Balb/c mouse at 1 mg/kg, po measured upto 96 hrs by LC-MS/MS analysis; type: ADME, organism-based; conditions: in vivo
[8] = Half life in male Balb/c mouse at 1 mg/kg, po measured upto 96 hrs by LC-MS/MS analysis; type: ADME, organism-based; conditions: male, Balb/c, in vivo
[9] = Clearance in male Balb/c mouse at 1 mg/kg, po measured upto 96 hrs by LC-MS/MS analysis; type: ADME, organism-based; conditions: male, Balb/c, in vivo
[10] = AUC(0 to t) in male Balb/c mouse at 1 mg/kg, po measured upto 96 hrs by LC-MS/MS analysis; type: ADME, organism-based; conditions: male, Balb/c, in vivo

Compound	IC50 (MDA-MB-436 [1])	inhibition [2]	inhibition at 0.1 µM (MDA-MB-436 [4])	other results
CCc1cc2ncc(CN3CCN(c4ccc(C(=O)NC)nc4F)CC3)c(F)c2[nH]c1=O	43.1 nM	–	–	–
CCc1cc2ncc(CN3CC=C(c4ncc(C(=O)NC)nc4C)CC3)cc2[nH]c1=O	–	77.2%	41.1%	inhibition [3]: 85.4%
CCc1nc2ccc(CN3CCN(c4ccc(C(=O)NC)nc4F)CC3)c(F)c2[nH]c1=O	87.1 nM	–	–	–
CCc1cc2ncc(CN3CCN(c4ccc([N+](=O)[O-])cc4F)CC3)cc2[nH]c1=O	1.8 nM	–	–	–
CCc1cc2ncc(CN3CC=C(c4ccc([N+](=O)[O-])cc4F)CC3)cc2[nH]c1=O	25.7 nM	72.1%	–	inhibition [3]: 98.1%; IC50 [5]: 0.47 nM; IC50 [6]: 37 nM
CCc1cc2ncc(CN3CC=C(c4cc(F)c(C)c(F)c4)CC3)cc2[nH]c1=O	–	27.5%	22.2%	–
CCc1cc2ncc(CN3CC=C(c4ccc(F)c(C)c4)CC3)cc2[nH]c1=O	–	46.6%	30.2%	–
CCc1cc2ncc(CN3CC=C(c4cccnc4N)CC3)cc2[nH]c1=O	–	56.5%	14.4%	–
CCc1cc2ncc(CN3CC=C(c4c(F)cc(C#N)cc4F)CC3)cc2[nH]c1=O	–	10.5%	16.3%	–
CCc1cc2ncc(CN3CC=C(c4cnccc4C(=O)NC)CC3)cc2[nH]c1=O	–	7.4%	18.5%	–
CCc1cc2ncc(CN3CC=C(c4ccc(C(=O)NC)nc4OC)CC3)cc2[nH]c1=O	–	38.8%	31.3%	–
CCc1cc2ncc(CN3CC=C(c4cnc5ccnn5c4)CC3)cc2[nH]c1=O	–	46.3%	13.6%	–
CCc1cc2ncc(CN3CC=C(c4ccccc4C#N)CC3)cc2[nH]c1=O	–	51.6%	44.8%	–
CCc1cc2ncc(CN3CC=C(c4ccc(C)c(F)c4)CC3)cc2[nH]c1=O	–	54.4%	28.2%	–
CCc1cc2ncc(CN3CCN(c4ccc(C(=O)NC)nc4F)CC3)cc2[nH]c1=O	2.8 nM	95.2%	–	inhibition [3]: 93.8%; IC50 [5]: 0.65 nM; IC50 [6]: 88 nM
CCc1cc2ncc(CN3CC=C(c4ncccc4C(=O)NC)CC3)cc2[nH]c1=O	–	15%	26.7%	–
CCc1cc2ncc(CN3CC=C(c4ccncc4C#N)CC3)cc2[nH]c1=O	–	13.7%	9.8%	–
CCc1cc2ncc(CN3CC=C(c4ccc(C(=O)NC)c(F)c4F)CC3)cc2[nH]c1=O	–	46.1%	16.1%	–
CCc1cc2ncc(CN3CC=C(c4ccc(C#N)cc4F)CC3)cc2[nH]c1=O	5.3 nM	96.9%	–	inhibition [3]: 92.3%; IC50 [5]: 0.17 nM; IC50 [6]: 62 nM
CCc1cc2ncc(CN3CC=C(c4cc(F)c(C#N)cn4)CC3)cc2[nH]c1=O	2.8 nM	88.6%	–	inhibition [3]: 87.4%; IC50 [5]: 0.28 nM; IC50 [6]: 130 nM; Cmax [7]: 3020 ng/mL; half-life [8]: 5.26 h; CL/F [9]: 1 mL/min/kg; AUC(0-t) at 96 h [10]: 16400 ng·h/mL

Compound	IC50 (MDA-MB-436 [1])	inhibition [2]	inhibition at 0.1 µM (MDA-MB-436 [4])	other results
CNC(=O)c1ccc(N2CCN(Cc3cnc4cc(C)c(=O)[nH]c4c3)CC2)c(F)n1	114 nM	75%	–	inhibition [3]: 98.3%; IC50 [5]: 0.32 nM; IC50 [6]: 19 nM
CCc1cc2ncc(CN3CC=C(c4ccc(C#N)s4)CC3)cc2[nH]c1=O	–	46.2%	45%	–
CCc1cc2ncc(CN3CC=C(c4cc(F)c(C#N)c(F)c4)CC3)cc2[nH]c1=O	16.3 nM	31.3%	51.9%	–
CCc1cc2ncc(CN3CC=C(c4ccc(N)nc4)CC3)cc2[nH]c1=O	–	10%	31.1%	–
CCc1cc2ncc(CN3CCN(c4cc(F)c(C#N)cn4)CC3)cc2[nH]c1=O	1.9 nM	–	–	Cmax [7]: 2250 ng/mL; half-life [8]: 6.3 h; CL/F [9]: 1 mL/min/kg; AUC(0-t) at 96 h [10]: 16000 ng·h/mL
CCc1cc2ncc(CN3CC=C(c4cnc(F)c(F)c4)CC3)cc2[nH]c1=O	–	72.3%	37.7%	inhibition [3]: 77.3%
CCc1cc2ncc(CN3CC=C(c4ncccc4C#N)CC3)cc2[nH]c1=O	–	-9.3%	5.9%	–
CCc1cc2ncc(CN3CC=C(c4ccc(C#N)c(F)c4F)CC3)cc2[nH]c1=O	–	54.7%	45.1%	–
CCc1cc2ncc(CN3CC=C(c4ccc(C(F)(F)F)nc4)CC3)cc2[nH]c1=O	–	56.9%	-4.1%	inhibition [3]: 82.3%
CCc1cc2ncc(CN3CC=C(c4cc(C)c(F)c(C)c4)CC3)cc2[nH]c1=O	–	-3.8%	23.6%	–
CNC(=O)c1ccc(N2CCN(Cc3cnc4cc(C5CC5)c(=O)[nH]c4c3)CC2)c(F)n1	4.1 nM	–	–	–
CCc1cc2ncc(CN3CC=C(c4ccc(F)cn4)CC3)cc2[nH]c1=O	6.5 nM	91.4%	–	inhibition [3]: 93.9%; IC50 [5]: 0.28 nM; IC50 [6]: 65 nM
CCc1cc2ncc(CN3CCN(c4ccc(C#N)cc4F)CC3)cc2[nH]c1=O	4.1 nM	–	–	–
CCc1cc2ncc(CN3CC=C(c4ccc(C)cc4F)CC3)cc2[nH]c1=O	–	61.7%	5%	inhibition [3]: 75.4%
CCc1cc2ncc(CN3CC=C(c4ccc(C(=O)NC)nc4N)CC3)cc2[nH]c1=O	–	27.2%	19.5%	–
CCc1cc2ncc(CN3CC=C(c4cnc(C(=O)NC)nc4)CC3)cc2[nH]c1=O	29.1 nM	47.1%	52.6%	–
CCc1cc2ncc(CN3CC=C(c4ccc(OC)nc4C)CC3)cc2[nH]c1=O	–	40.9%	24%	–
CCc1cc2ncc(CN3CC=C(c4ccc(C#N)cc4)CC3)cc2[nH]c1=O	–	75.6%	37.9%	inhibition [3]: 91.7%
CCc1cc2ncc(CN3CC=C(c4ncc(C#N)cc4C)CC3)cc2[nH]c1=O	–	15.9%	-10.9%	–
CCc1cc2ncc(CN3CC=C(c4cnc(C#N)cn4)CC3)cc2[nH]c1=O	–	45.8%	47.5%	–
